Values of other authors as cited in patent US8163753B2, “2,3-dihydro-6-nitroimidazo (2,1-b) oxazole compounds for the treatment of tuberculosis” (priority 2003, dated 2012).

Tested on: multi-drug-resistant Mycobacterium tuberculosis
Settings: literature report; cited from earlier work

For `CCC1Cn2cc([N+](=O)[O-])nc2O1` (stereo not shown) [CGI-17341], which “bactericidal action to multi-drug-resistant Mycobacterium tuberculosis” value is on record?
Its value is “has a bactericidal action”.
